Test results published in US20090304744A1, “METHODS OF ENHANCING IMMUNE RESPONSE IN THE INTRADERMAL COMPARTMENT AND COMPOUNDS USEFUL THEREOF” (priority 2003, published 2009).
Read-outs that look alike come from different tables or passages of the source.

How the values were obtained:
[1] = test system: Influenza A/Panama/2007/99 (H3N2); assay: HAI assay after ID microneedle immunization of rats with FLUZONE +/- Tween 80; assay type: in vivo, Brown Norway rats; conditions: for % Seroconversion (HAI Titre ≧ 10) / % Seroprotection (HAI Titre ≧ 40): day 21, Tween 80 at 5% where added
Procedure: Measurement of HA specific Antibody Titer by HAI: Sera were collected and used as test samples. Fresh cRBC reagent was prepared daily. Sodium Chloride solution (0.9%) was added to wells of a Falcon® Non-Tissue Culture Treated Plate, 96 well, U-Bottom with Low Evaporation Lid. Viral lysate stock (8 HA/50 μl) was added to wells. Appropriate volume of test serum was added to a single row or column of “start wells,” and a serial dilution was performed by transferring 50 μl of the serum dilution from the “start wells” into the next well, creating a 1:2 dilution. When completed, wells contained a serial serum dilution and a constant amount of viral lysate antigen, being 4 HA per well. cRBC reagent (0.5%, 50 μl) was added to each well, including negative control wells, which contained no HA. The assay was allowed to incubate for 45 minutes at room temperature, ensuring that the plate is not jostled. For determination, plates were tilted at a 70-degree angle for 5 minutes, and viewed on alight box.
HAI assays were performed with A-New Caledonia (H1N1), A-Panama (H3N2) and B-Hong Kong antigen as single test antigens and trivalent pools.
Female Brown Norway (BN) rats (n=10/group) were immunized by ID delivery using Microneedles (34 gauge needle inserted into a 3.5″ long catheter to an exposed needle length of 1.0 mm). ID delivery by Microneedles consisted of 2 bolus injections of 100 μl by hand to either side of the lower back of the rat, approximately 10 seconds in duration (each bolus), using an attached 1 cc syringe. Rats were immunized with either of two different doses of the 2003/2004 season of FLUZONE™ (Aventis Pasteur, Swiftwater, Pa.), for a total of 9µg (high dose) or 0.9µg (low dose) hemagglutinin (HA) per rat, 3µg or 0.3µg HA of each strain of influenza in the vaccine (A/New Calcdonia/20/99 H1N1, A/Panama/2007/99H3N2, and B/Hong Kong/1434/2002).
The rats were bled 21 days after immunization and their serum assayed for neutralizing antibody titres using the hemagglutination inhibition (HAI) assay, and for influenza-specific antibody titres by ELISA. Both assays were performed against the H3N2 strain of influenza in the FLUZONE™ formulation to characterize the immune response.

[2] = test system: trivalent test antigen (New Calcdonia, Panama and B-Hong Kong); parameters: species or system Hartley Guinea Pigs; conditions: guinea pig, in vivo
[3] = test system: Influenza A/Panama/2007/99 (H3N2); assay: Influenza-specific ELISA titre after ID microneedle immunization of rats with FLUZONE +/- Tween 80; assay type: in vivo, Brown Norway rats; conditions: 5% Tween80 added to low or high dose FLUZONE
Procedure: Antibody response to FLUZONE™ was measured by coating an influenza antigen (Influenza APR834, purified/inactivated at 2 mg/mL from Charles River SPAFAS or Alternatively New Calcdonia, Panama or B-Hong Kong lysates from Biodesign Inc.) on a microtiter plate (96-well NUNC IMMUNO-PLATE™ with MAXISORP™ surface). The coating solution was approximately 3.8µg/mL of influenza protein in carbonate buffer (Sigma Chemical Co. Cat. C3041). The coating antigen was exposed to the Nunc plate for one hour at 37° C. The coating solution was discarded and replaced with a blocking solution (phosphate buffered saline with Tween™ 20 (PBS-TW20); Sigma Chemical Co. Cat. P-3563) and 5% w/v nonfat dry milk. The blocking solution was exposed to the plate surface for two hours at 37° C. The blocking solution was subsequently discarded.
Female Brown Norway (BN) rats (n=10/group) were immunized by ID delivery using Microneedles (34 gauge needle inserted into a 3.5″ long catheter to an exposed needle length of 1.0 mm). ID delivery by Microneedles consisted of 2 bolus injections of 100 μl by hand to either side of the lower back of the rat, approximately 10 seconds in duration (each bolus), using an attached 1 cc syringe. […]

[4] = test system: guinea pig skin; assay: Guinea pig erythema Draize scoring after ID delivery of excipients; assay type: in vivo, Hartley guinea pigs; conditions: Tween 80 5%, Deoxycholate 0.1%, D-sorbitol 5%, Lutrol 15%; without antigen, 50 ul per injection, 34 gauge 1.0 mm; immediate, 1 h and 24 h readings
Source text: The methods of the invention provide fundamental principles and guidelines whereby optimum parameters may be determined for delivering immunogenic compositions to the dermal compartment (including epidermal and intradermal compartments) wherein the excipients have optimum adjuvant properties and the formulations of the invention have enhanced efficacy in comparison to when the same formulation is delivered using conventional modes of delivery, including intramuscular and subcutaneous delivery. The invention provides methods wherein the formulations of the invention have been screened to have optimum concentration ranges for delivery to the optimum depth of the intradermal compartment such that they have adjuvant properties, resulting in one or more of the following properties: minimal to no skin irritation as determined and assessed using conventional modes of analysis of skin reactions using visual methods such as Draize scoring (For a typical draize scoring analysis see table below); minimal to no hemolysis as determined using standard methods known in the art, and enhanced immune response as measured by enhanced seroconversion and/or enhanced antibody titers.
Erythema Draize scores for various excipients were determined using procedures described in Section 5.4, above. In one study, Tween™ 80 (5%), Deoxycholate (0.1%), D-sorbitol (5%) or Lutrol™ (15%) was administered (50 μl per injection) without the antigen to Hartley guinea pigs using 34 gauge, 1.0 mm needles. […] Deeper administrations will be necessary for deoycholate to be used reliably at this concentration. From left to right, the reading immediately after administration, the one-hour reading and the 24-hour reading.

[5] = test system: intradermal tissue; assay: Excipient operating profile: maximum concentration with Draize score of 2 or less vs tissue depth (slope m)
Source text: The preferred excipients of the invention have a common operating profile in the intradermal space defined by a slope (m) value of greater than 0.125. An exemplary profile for determining the optimal operating profile is depicted in FIG. 35. The slope identifies the change in maximum operating concentration as it relates to tissue depth within the intradermal compartment. […] The concentration of excipient at the first reference point is the highest concentration at the shallowest delivery depth that allows a draize score of 2 or less. […] The concentration of excipient at the second reference point is the highest concentration at the deepest delivery depth that allows a draize score of 2 or less. For example, the distance between the first and second delivery depth can be 2 mm apart and specifically 1 mm and 3 mm deliveries. The operating slope (m) can be described by the following formula: […]
Where C2 equals Cinfinity at D2
Where C1 equals maximum excipient concentration at D1 with a Draize score of 2 or less
Where Dn denotes delivery depth
Tween™ 80 matches the preferred excipient profile. FIG. 35 illustrates an excipient selected for the intradermal tissue according to the instant invention. Tween™ 80 has a profile similar to the “Excipient-A” in the illustration having a slope greater than 0.125. Whereby a 5% v/v soln of Tween™ 80 is at the maximum operating concentration at 1.0 mm depth, and can be used successfully at 10% v/v at the 3 mm depth.

[6] = test system: influenza antigen (Influenza APR834); assay type: in vivo, Balb/c mice; conditions: ID; for Trend in immune response as indicated by ELISA signal (1:123 serum screening dilution): mice
[7] = test system: swine skin
[8] = test system: RBCs; assay: Hemolysis in blood of swine after ID Tween 80; assay type: in vivo, Yorkshire swine; conditions: 6 x 200 ul doses containing 5.0% Tween 80, 31 g x 1.5 mm needle, blood from systemic circulation
Procedure: Tween™ 80 Preferred concentrations avoid hemolysis: Surfactants/detergents can lyse RBCs. Blood from Yorkshire swine that received 6×200 ul doses containing 5.0% Tween™ 80 were collected. No hemolysis was observed was in blood taken immediately from the systemic circulation. A 31 g× 1.5 mm needle was used in the study.

Structure (SMILES): CCCCCCCC/C=C\CCCCCCCC(=O)OCCOCC(OCCO)C1OCC(OCCO)C1OCCO (centres unmarked) [Tween 80, polysorbate 80]
- increase of mean HAI titre relative to ID delivery of FLUZONE alone ([1]; 5% Tween80 added to low or high dose FLUZONE, ID, rats, H3N2): 5 fold
- % Seroconversion (HAI Titre ≧ 10) ([1]; IDHigh (9 ug HA per rat)): 100%
- % Seroprotection (HAI Titre ≧ 40) ([1]; IDHigh (9 ug HA per rat)): 100%
- % Seroconversion (HAI Titre ≧ 10) ([1]; IDLow (0.9 ug HA per rat)): 100%
- % Seroprotection (HAI Titre ≧ 40) ([1]; IDLow (0.9 ug HA per rat)): 90%
- hemagglutin specific titer vs FLUZONE alone ID and FLUZONE alone IM [2]: outperformed
- increase of mean ELISA titre relative to ID delivery of FLUZONE alone [3]: up to 15 fold
- Erythema Draize scores (tolerability) [4]: reasonably well-tolerated
- maximum operating concentration ([5]; 1.0 mm depth): 5 % v/v
- concentration that can be used successfully ([5]; 3 mm depth): 10 % v/v
- slope (maximum acceptable conc./tissue depth) ([5]; intradermal tissue, 1.0 mm vs 3 mm depth): greater than 0.125
- immune response compared to commercial trivalent vaccine delivered IM ([6]; Tween 80 0.9% V/V with trivalent vaccine, 34 g x 1 mm needle, murine model): higher mean titers, higher median titers and higher seroconversion
- seroconversion ([6]; Tween 80 at 5% + FLUZONE, Balb/c mice, ELISA with PR8 test antigen): 100%
- Trend in immune response as indicated by ELISA signal (1:123 serum screening dilution) ([6]; excipient 0.1% w/v with FLUZONE): 0.829
- Trend in immune response as indicated by ELISA signal (1:123 serum screening dilution) ([6]; excipient 0.3% w/v with FLUZONE): 1.599
- Trend in immune response as indicated by ELISA signal (1:123 serum screening dilution) ([6]; excipient 0.9% w/v with FLUZONE): 2.647
- draize score ([7]; 2% Tween 80, 3.0 mm delivery, approximately 20-24 hours after administration, Yorkshire swine): 0.0
- tolerability in the ID space ([7]; 5% Tween 80, swine, 31 g 1.5 mm needle): well tolerated
- tolerability ([7]; 10%, delivered to 1-2 mm depth, Yorkshire swine): not well tolerated
- Erythema Draize scores (tolerability) ([7]; Tween 80 5%, Deoxycholate 0.1%, D-sorbitol 5%, Lutrol 15%, without antigen, 200 ul per injection, 31 gauge 1.5 mm, 1 h and 24 h readings): reasonably well-tolerated
- erythema ([7]; in vivo): moderate to severe erythema
- skin reactions as a function of needle depth ([7]; in vivo): improved with depth
- hemolysis [8]: No hemolysis
